Laboratory results as given in US9615574B2, “Compositions of dibromomalonamide and their use as biocides” (Dow Global Technologies LLC, priority 2013, dated 2017).

Key:
[1] = test system: Pseudomonas aeruginosa ATCC 10145 and Staphylococcus aureus ATCC 6538; assay: MBC of DBMAL, THPS and blends against aerobic bacteria, 1 hr and 2 hr contact time; format: cell-based; settings: alone or in the blend; for MBC (ppm active) DBMAL: DBMAL concentration; for MBC (ppm active) THPS: THPS concentration
Method: (§1) The synergism of the biocides combination of the present invention was determined using the method described by Kull, F. C, et al. in Applied Microbiology 9:538-541 (1961).
Sterile salt solution (0.2203 g of CaCl2, 0.1847 g of MgSO4, and 0.2033 g of NaHCO3 in 1 L water, adjust pH to 7.4) was inoculated with approximately 10^7 CFU/mL of Pseudomonas aeruginosa ATCC 10145 and Staphylococcus aureus ATCC 6538.
Aliquots of the cell suspension were then treated with DBMAL, THPS, and combinations of these actives at selected concentrations.
After incubating at 37° C. for 1 hr, viable bacteria in each treated and untreated (control) cell suspensions were enumerated using a serial dilution method in Tryptic Soy Broth. The biocidal efficacy was determined by minimum biocide concentration for bacteria kill in the aliquots (MBC). Synergy Index was then calculated. Table 2 summarizes the MBC of each biocide and their blends, and the Synergy Index of each combination.
The same test procedure in Example 2 was used to evaluate the biocidal efficacy of DBMAL, THPS and their blends against aerobic bacteria in a 2-hr contact assay. Table 3 summarizes the MBC of each biocide and their blends, and the Synergy Index of each combination.

[2] = test system: Desulfovibrio longus ATCC 51456; assay: MBC of DBMAL, THPS and blends against anaerobic bacteria, 24 hour contact time; format: cell-based; settings: alone or in the blend, 40° C., 10^7 to 10^8 CFU/mL
Method: as §1
Inside an anaerobic chamber (Bactron anaerobic chamber), a deoxygenated sterile salt solution (3.1183 g of NaCl, 1.3082 mg of NaHCO3, 47.70 mg of KCl, 72.00 mg of CaCl2, 54.49 mg of MgSO4, 172.28 mg of Na2SO4, 43.92 mg of Na2CO3 in 1 L water, pH was adjusted to 7) was inoculated with Desulfovibrio longus ATCC 51456 to a final bacterial concentration of 10^7 to 10^8 CFU/mL. Aliquots of this cell suspension were then treated with DBMAL, THPS, and DBMAL/THPS blends, at selected active concentrations. After the treated cell suspensions were incubated at 40° C. for 24 hours, viable bacteria in each treated and untreated (control) cell suspensions were enumerated using a serial dilution method in Modified Baar's Medium (2.0 g of MgSO4, 5.7 g of Sodium citrate.2H2O, 1.0 g of CaSO4, 1.0 g of NH4Cl, 3.5 g of Sodium lactate, 1.0 g of Yeast extract, 0.5 g of K2HPO4, 0.1 g of Sodium Thioglycolate, 0.02 g of Fe(NH4)2(SO4)2, 20 g of NaCl in 1 L deionized water). The biocidal efficacy was determined by minimum tested biocide concentration for bacteria kill in the aliquots (MBC).
Table 1 summarizes the synergistic effect of each biocide and their blends, and the Synergy Index of each combination.

Molecule | MBC (ppm active) DBMAL ([1]; 2-hr contact assay) | MBC (ppm active) DBMAL ([1]; 37° C., 1 hr contact time) | MBC (ppm active) DBMAL ([2]; DBMAL concentration) | MBC (ppm active) THPS ([1]; 2-hr contact assay) | MBC (ppm active) THPS ([1]; 37° C., 1 hr contact time) | MBC (ppm active) THPS ([2]; THPS concentration)
NC(=O)C(Br)(Br)C(N)=O [1:0, 2,2-dibromomalonamide] | 77.8 ppm active | >100.0 ppm active | 200.0 ppm active |  |  | 
tetrakis(hydroxymethyl)phosphonium sulfate [0:1] |  |  |  | 29.6 ppm active | 100.0 ppm active | 50.0 ppm active
